Assay results reported in article PMC3117126 (Journal of medicinal chemistry, 2011).
Counter-ions that a name gives are not always drawn.

Experiments:
[1] = target: T1, human P2Y4 receptor (Homo sapiens, UniProt P51582); settings: cited from earlier work
[2] = Chemical stability: hydrolysis at 37°C and pH 1.5, HPLC; assay type: physicochemical; settings: pH 1.5, 0.2 mg/mL, compared with 1 (UTP)
[3] = target: T1, human P2Y4 receptor; assay: PLC activation; assay type: cell-based; settings: for selectivity for human P2Y4 over P2Y2 and P2Y6 receptors: over both P2Y2 and P2Y6
[4] = target: human P2Y2 receptor (Homo sapiens, UniProt P41231); assay: PLC activation; assay type: cell-based; settings: for effect at 10 µM, hP2Y2: printed in EC50 column, NE = no effect at 10 µM
human P2Y2 receptor, sequence (P41231 whole entry): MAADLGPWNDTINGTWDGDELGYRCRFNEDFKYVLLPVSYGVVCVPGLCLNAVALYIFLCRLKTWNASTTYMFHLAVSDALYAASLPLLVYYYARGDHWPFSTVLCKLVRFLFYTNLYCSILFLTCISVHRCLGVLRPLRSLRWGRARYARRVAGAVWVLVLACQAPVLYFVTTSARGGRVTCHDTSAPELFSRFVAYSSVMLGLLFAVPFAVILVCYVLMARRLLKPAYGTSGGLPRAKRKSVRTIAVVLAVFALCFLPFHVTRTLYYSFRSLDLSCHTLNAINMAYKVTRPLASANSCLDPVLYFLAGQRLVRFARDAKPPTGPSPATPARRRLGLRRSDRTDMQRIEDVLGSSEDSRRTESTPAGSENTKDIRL

T1 sequence (P51582 whole entry): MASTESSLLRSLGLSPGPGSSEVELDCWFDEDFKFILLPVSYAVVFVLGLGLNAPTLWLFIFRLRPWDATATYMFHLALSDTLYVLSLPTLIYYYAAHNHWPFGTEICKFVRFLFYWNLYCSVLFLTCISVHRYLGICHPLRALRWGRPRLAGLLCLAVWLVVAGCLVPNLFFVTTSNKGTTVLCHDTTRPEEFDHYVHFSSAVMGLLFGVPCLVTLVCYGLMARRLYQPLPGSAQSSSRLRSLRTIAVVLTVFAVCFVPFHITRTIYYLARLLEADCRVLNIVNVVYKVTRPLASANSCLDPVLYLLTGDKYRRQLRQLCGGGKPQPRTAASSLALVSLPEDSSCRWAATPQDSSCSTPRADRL

SMILES: [N-]=[N+]=N[C@@H]1[C@H](O)[C@@H](COP(=O)(O)OP(=O)(O)OP(=O)(O)O)O[C@H]1n1ccc(=O)[nH]c1=O [Compound 3]
- selectivity for the P2Y4 receptor in comparison to the P2Y2 receptor [1]: 5 fold

SMILES: O=c1ccn([C@@H]2O[C@H](COP(=O)(O)OP(=O)(O)OP(=O)(O)OP(=O)(O)O[C@H]3O[C@H](CO)[C@@H](O)[C@H](O)[C@H]3O)[C@@H](O)[C@H]2O)c(=O)[nH]1 [Compound 8, Up4-[1]glucose, reference compound]
- stability at pH 1.5 [2]: less stable at pH 1.5 than 1

SMILES: O=c1[nH]/c(=N\OCCc2ccccc2)ccn1[C@@H]1O[C@H](COP(=O)(O)OP(=O)(O)OP(=O)(O)O)[C@@H](O)[C@H]1O [Compound 15, N^4-Phenylethoxycytidine-5′-triphosphate triethylammonium salt]
- selectivity for human P2Y4 over P2Y2 and P2Y6 receptors [3]: ≥ 10 fold

SMILES: O=c1[nH]/c(=N\OCCCc2ccccc2)ccn1[C@@H]1O[C@H](COP(=O)(O)OP(=O)(O)OP(=O)(O)O)[C@@H](O)[C@H]1O [Compound 16, N^4-Phenylpropoxycytidine-5′-triphosphate triethylammonium salt]
- selectivity for human P2Y4 over P2Y2 and P2Y6 receptors [3]: ≥ 10 fold

SMILES: COc1ccc(OP(=O)(O)OP(=O)(O)OP(=O)(O)OP(=O)(O)OC[C@H]2O[C@@H](n3ccc(=O)[nH]c3=O)[C@H](O)[C@@H]2O)cc1 [Compound 22, Uridine-5′-(4-methoxyphenyl)-tetraphosphate triethylammonium salt]
- effect at 10 µM, hP2Y2 [4]: ≤50% at 10 µM

SMILES: COc1cccc(OP(=O)(O)OP(=O)(O)OP(=O)(O)OP(=O)(O)OC[C@H]2O[C@@H](n3ccc(=O)[nH]c3=O)[C@H](O)[C@@H]2O)c1 [Compound 23, Uridine-5′-(3-methoxyphenyl)-tetraphosphate triethylammonium salt]
- effect at 10 µM, hP2Y2 [4]: ≤50% at 10 µM

SMILES: O=c1ccn([C@@H]2O[C@H](COP(=O)(O)OP(=O)(O)OP(=O)(O)OP(=O)(O)Oc3ccc([N+](=O)[O-])cc3)[C@@H](O)[C@H]2O)c(=O)[nH]1 [Compound 24, Uridine-5′-(4-nitrophenyl)-tetraphosphate triethylammonium salt]
- effect at 10 µM, hP2Y2 [4]: abolished activity

SMILES: O=c1ccn([C@@H]2O[C@H](COP(=O)(O)OP(=O)(O)C(Cl)(Cl)P(=O)(O)OP(=O)(O)O[C@H]3O[C@H](CO)[C@@H](O)[C@H](O)[C@H]3O)[C@@H](O)[C@H]2O)c(=O)[nH]1 [Compound 26, Uridine-5′-glucose-1′-β,γ-dichloromethylene tetraphosphate triethylammonium salt]
- effect at 10 µM, hP2Y2 [4]: ≤50% at 10 µM

SMILES: O=c1ccn([C@@H]2O[C@H](COP(=O)(O)OP(=O)(O)OP(=O)(O)OP(=O)(O)O[C@H]3O[C@H](CO)[C@@H](O)[C@@H](O)[C@H]3O)[C@@H](O)[C@H]2O)c(=O)[nH]1 [Compound 28, Uridine-5′-allose-1′-tetraphosphate triethylammonium salt]
- increase in P2Y4 receptor potency relative to Up4-[1]glucose 8 ([3]; compared with 8): 11 fold

SMILES: O=c1ccn([C@@H]2O[C@H](COP(=O)(O)OP(=O)(O)OP(=O)(O)OP(=O)(O)O[C@H]3OC[C@@H](O)[C@H](O)[C@H]3O)[C@@H](O)[C@H]2O)c(=O)[nH]1 [Compound 30, Uridine-5′-xylose-1′-tetraphosphate triethylammonium salt]
- reduction in potency at P2Y2 receptor relative to 8 ([4]; fold less potent than 8): 9 fold

SMILES: O=c1ccn([C@@H]2O[C@H](COP(=O)(O)OP(=O)(O)OP(=O)(O)OP(=O)(O)O[C@H]3O[C@H](CO)[C@@H](O)[C@H](F)[C@H]3O)[C@@H](O)[C@H]2O)c(=O)[nH]1 [Compound 34, P^1-(Uridine-5′-)P^4-(3′-deoxy-3′-fluoroglucose-1′-)tetraphosphate triethylammonium salt]
- stability at pH 1.5 [2]: much more labile
- selectivity for human P2Y4 over P2Y2 and P2Y6 receptors [3]: ≥ 10 fold
